Patent publication US10456359B2, “Synergistic beverage composition” (Harsha Chigurupati, priority 2015, dated 2019)
Where a SMILES comes first, the peptide text is derived from it.

Tests used:
[1] = test system: serum alanine aminotransferase (ALT); assay: Hepatoprotection study, serum ALT, alcohol 5 days; format: in vivo, Wistar albino rats; conditions: Pro: Protection (%), rats, alcohol 4 gm/kg/day p.o.
[2] = test system: aspartate aminotransferase (AST); assay: Hepatoprotection study, serum AST, alcohol 5 days; format: in vivo, Wistar albino rats; conditions: Pro: Protection (%), rats, alcohol 4 gm/kg/day p.o.
[3] = test system: serum C-reactive protein (CRP); assay: CNS/immunology study, serum CRP, alcohol 5 days; format: in vivo, Wistar albino rats; conditions: Pro: Protection (%), rats, alcohol 5 Day
Description: (§1) For hangover, 1 day immunology parameter were considered and for CNS, 5 days immunology parameter were considered.

interleukin-12 (IL-12) [4] = assay: CNS/immunology study, serum IL-12, alcohol 5 days; format: in vivo, Wistar albino rats; conditions: Pro: Protection (%), rats, alcohol 5 Day
Description: as §1

[5] = test system: Monocyte chemoattractant protein-1 (MCP-1); assay: CNS/immunology study, serum MCP-1, alcohol 5 days; format: in vivo, Wistar albino rats; conditions: Pro: Protection (%), rats, alcohol 5 Day
Procedure: (§2) The lowest detectable limit of the kit is 0.1 ng/ml (Wang L, Li Y, Chen J, et al. “Ischemic Cerebral Tissue and MCP-1 Enhance Rat Bone Marrow Stromal Cell Migration in Interface Culture.” Experimental Hematology, 30, 7, 2002, 831-836).
as §1

Interferon gamma (IFN-γ) [6] = assay: CNS/immunology study, serum IFN-gamma, alcohol 5 days; format: in vivo, Wistar albino rats; conditions: Pro: Protection (%), rats, alcohol 5 Day
Description: (§3) Distilled ethanol was obtained from Bengal Chemicals, West Bengal, India. Biochemical kits like AST, ALT, ALP and total protein were obtained from Span Diagnostics Ltd. Surat, India. Rat IL-12 ELISA kit (Elabscience Biotechnology Co. Ltd, WuHan, P.R.C.), Rat CRP ELISA kit (BD Biosciences, USA), Rat IFN-gamma ELISA kit (Biolegend, San Diego, Calif.) Rat MCP-1 ELISA kit (Elabscience Biotechnology Co. Ltd, WuHan, P.R.C.). All the chemicals used in the present study were of analytical grade and obtained from the following companies: Sigma (St. Louis, Mo., USA), Merck (Mumbai, India), S D fine chemicals (Mumbai, India) and Qualigen (Mumbai, India).
as §1

[7] = test system: interleukin-12 (IL-12) from brain homogenate; assay: CNS study, IL-12 from brain homogenate, alcohol 5 days; format: in vivo, Wistar albino rats; conditions: rats, alcohol 5 Day; for Brain IL12 Pro: Pro: Protection (%)
[8] = test system: Monocyte chemoattractant protein-1 (MCP-1) from brain homogenate; assay: CNS study, MCP-1 from brain homogenate, alcohol 5 days; format: in vivo, Wistar albino rats; conditions: rats, alcohol 5 Day; for Brain MCP-1 Pro: Pro: Protection (%)
[9] = test system: spatial learning and memory; assay: Morris water maze task (escape latency), alcohol 5 days; format: in vivo, Wistar albino rats; conditions: Pro: Protection (%), rats, alcohol 5 day
[10] = test system: serum C-reactive protein (CRP); assay: Hangover study, serum CRP, alcohol 1 day; format: in vivo, Wistar albino rats; conditions: 1 Day alcohol
Description: as §1

interleukin-12 (IL-12) [11] = assay: Hangover study, serum IL-12, alcohol 1 day; format: in vivo, Wistar albino rats; parameters: concentration or dose not given beside the values; conditions: 1 Day alcohol
Description: as §1

[12] = test system: Monocyte chemoattractant protein-1 (MCP-1); assay: Hangover study, serum MCP-1, alcohol 1 day; format: in vivo, Wistar albino rats; parameters: concentration or dose not given beside the values; conditions: 1 Day alcohol
Procedure: as §2, §1

Interferon gamma (IFN-γ) [13] = assay: Hangover study, serum IFN-gamma, alcohol 1 day; format: in vivo, Wistar albino rats; parameters: concentration or dose not given beside the values; conditions: 1 Day alcohol
Description: as §3, §1

[14] = test system: interleukin-12 (IL-12) from brain homogenate; assay: Hangover study, IL-12 from brain homogenate, alcohol 1 day; format: in vivo, Wistar albino rats; parameters: concentration or dose not given beside the values; conditions: 1 Day alcohol
[15] = test system: Monocyte chemoattractant protein-1 (MCP-1) from brain homogenate; assay: Hangover study, MCP-1 from brain homogenate, alcohol 1 day; format: in vivo, Wistar albino rats; conditions: 1 Day alcohol
[16] = test system: alkaline phosphatase (ALP); conditions: Pro: Protection (%); rats, alcohol 4 gm/kg/day p.o., 5 days, serum
Procedure: The levels of alanine aminotransferase (ALT), aspartate aminotransferase (AST) and alkaline phosphatise (ALP) in serum were measured using commercial spectrophotometric kit bought from Span Diagnostic Ltd. (www.span.in) according to the manufacturer's protocols.
12-16 hours after the last dose, the animals were sacrificed and blood samples were collected for estimation of biochemical parameters.
Male Wistar albino rats weighing 150-200 g were procured and randomly divided into groups consisting of twelve (12) animals in each group. Hepatoprotection was induced by alcohol in rats by oral administration of 30% alcohol (4 gm/kg/day, p.o.) for 5 days and this group served as the negative control and treated groups received different formulation.
All drug solutions were prepared in 40% aqueous alcohol, adjusting the pH in the range of 5.0-10.0 for evaluation of alcohol induced Hepatoprotection. This solution was further diluted with distilled water to obtain 30% aqueous alcoholic solution and administered orally by gavage to different rats group of step (a).

[17] = test system: acetylcholinesterase activity of brain homogenate; conditions: Pro: Protection (%), rats, alcohol 5 Day
Procedure: (§4) We have included this parameter to evaluate cognition and memory deficit in experimental animals.
(§5) Experimental Design • (b) Animal study model 1: Saline/Alcohol (4.0 gm/kg/day, p.o.)/Formulation with alcohol (4.0 gm/kg/day, p.o.) were administered (fed orally by orogastric cannula) for one day. 12-16 hours after the dose the animals were sacrificed and blood samples will be collected for estimation of biochemical parameters. Whole brain without cerebellum were dissected out, 10% homogenate was prepared with 0.1 M PB (pH 7.4). The homogenate solution was centrifuged at 10000 rpm for 20 minutes at 4° C. and the supernatant was used for estimation of acetylcholinesterase activity, which was estimated by Ellman's method (Ellman G L et al. A new and rapid colorimetric determination of acetylcholinesterase activity. Biochem Pharmacol, 1961, 7:88.) • (c) Animal study model 2: Saline/Alcohol (4.0 gm/kg/day, p.o.)/Formulation with alcohol (4.0 gm/kg/day, p.o.) were administered (fed orally by orogastric cannula) for 5 consecutive days. 12-16 hours after the last dose, the animals were sacrificed and blood samples were collected for estimation of biochemical parameters. Whole brain without cerebellum were dissected out, 10% homogenate was prepared with 0.1 M PB (pH 7.4). The homogenate solution was centrifuged at 10000 rpm for 20 minutes at 4° C. and the supernatant was used for estimation of acetylcholinesterase activity. […] The latency period of day 5 (before alcohol) was compared with post alcohol latency period (Vorhees C V and Williams M T. Morris water maze: procedures for assessing spatial and related forms of learning and memory, Nat Protoc, 2006, 1(2): 848-58.). % Protection Calculated in Above Experiments: % Protection=1−[(T−NS)/(AL−NS)]×100 T=Mean value of drug treated, NS=Mean value of normal control, AL=Mean value of alcohol alone.
(§6) Male Wistar albino rats weighing 150-200 g were procured and randomly divided into groups consisting of twelve (12) animals in each group. Alcohol induced hangover and CNS related biochemical changes and memory function in rats by oral administration of 30% alcohol (4 gm/kg/day, p.o.) for 1 and 5 days and this group served as the negative control and treated groups received different formulation.
(§7) All drug solutions were prepared in 40% aqueous alcohol, adjusting the pH in the range of 5.0-10.0 for evaluation of alcohol induced hangover and CNS related biochemical parameters.

[18] = test system: acetylcholinesterase activity of brain homogenate; conditions: Hangover study, 1 Day alcohol; ingredient amounts in mass concentration (%)
Procedure: as §4, §5, §6, §7

Structure (SMILES)	ALT Pro [1]	AST Pro [2]	CRP Pro [3]	IL12 Pro (interleukin-12 (IL-12) [4])	MCP-1 Pro [5]	IFN-Gamma Pro (Interferon gamma (IFN-γ) [6])	Brain IL12 Pro [7]	Brain MCP-1 Pro [8]	WATER MAZE Pro [9]	CRP Pro (Protection) [10]	IL12 Pro (Protection) (interleukin-12 (IL-12) [11])	MCP-1 Pro (Protection) [12]	IFN-Gamma Pro (Protection) (Interferon gamma (IFN-γ) [13])	Brain IL12 Pro (Protection) [14]	Brain MCP-1 Pro (Protection) [15]	ALP Pro [16]	ACHe Pro [17]	ACHe Pro (Protection) [18]	Brain IL12 Syn ([7]; Syn: Synergism (%))	Brain MCP-1 Syn ([8]; Syn: Synergism (%))
CC1(C(=O)O)CCC2(C)CCC3(C)C(=CC(=O)C4C5(C)CCC(OC6OC(C(=O)O)C(O)C(O)C6OC6OC(C(=O)O)C(O)C(O)C6O)C(C)(C)C5CCC43C)C2C1 (stereo not drawn) [0.1 GA, 18β-GA]	4.24%	8.25%	5.19%	5.85%	0%	0%	3.66%	3.58%	5.32%	5.15%	2.6%	3.79%	2.58%	3.16%	4.25%	6.29%	9.4%	11.79%	–	–
C/C=C/C=C/C(=O)[O-].[K+] [0.1 KS, Potassium Sorbate]	0.11%	0.09%	0.87%	1.2%	1.04%	0%	0.00%	0%	1.31%	1.2%	0.89%	0.16%	0.11%	0.24%	0.19%	0%	0%	0.24%	0%	0%
CC1(C(=O)O)CCC2(C)CCC3(C)C(=CC(=O)C4C5(C)CCC(OC6OC(C(=O)O)C(O)C(O)C6OC6OC(C(=O)O)C(O)C(O)C6O)C(C)(C)C5CCC43C)C2C1 (stereo not drawn) [0.3 GA, 18β-GA]	25.62%	20.46%	15.63%	10.07%	15.46%	23.18%	15.63%	21.36%	15.57%	11.21%	–	13.97%	7.85%	–	18.92%	11.68%	21.5%	–	–	–
OC[C@@H](O)[C@@H](O)[C@H](O)[C@H](O)CO [0.5 Man, D-Mannitol]	3.59%	4.28%	–	–	–	–	–	2.75%	4.95%	–	3.59%	3.27%	3.51%	4.25%	–	4.78%	5.22%	4.12%	–	–
C[C@H](N)C(=O)N[C@@H](CCC(N)=O)C(=O)O [1 DP, L-Ala-L-Gln] (H-Ala-Gln-OH)	13.4%	15.68%	6.33%	16.44%	7.14%	8.89%	10.30%	–	22.38%	31.3%	6.13%	20.74%	12.25%	10.53%	3.58%	18.96%	3.91%	–	–	–
OC[C@@H](O)[C@@H](O)[C@H](O)[C@H](O)CO [1.2 Man, D-Mannitol]	23.19%	22%	–	–	–	–	13.92%	14.28%	12.84%	8.68%	13.45%	11.85%	7.79%	12.28%	21.28%	24.48%	17.58%	21.54%	–	–
C[C@H](N)C(=O)N[C@@H](CCC(N)=O)C(=O)O [1.5 DP, L-Ala-L-Gln] (H-Ala-Gln-OH)	14.68%	20.25%	11.97%	22.53%	11.01%	–	–	–	24.53%	26.13%	20.11%	11.04%	20.58%	18.26%	14.96%	22.35%	15.29%	21.14%	–	–
C[C@H](N)C(=O)N[C@@H](CCC(N)=O)C(=O)O [1.25 DP, L-Ala-L-Gln] (H-Ala-Gln-OH)	17.59%	22%	–	22.71%	8.14%	13.09%	15.82%	–	10.36%	10.61%	–	14.22%	10.44%	7.02%	17.02%	22.73%	9.7%	20.33%	–	–
C[C@H](N)C(=O)N[C@@H](CCC(N)=O)C(=O)O [2.0 DP, L-Ala-L-Gln] (H-Ala-Gln-OH)	38.83%	30.72%	27.24%	29.54%	19.16%	22.91%	–	24.36%	50.36%	33.14%	31.9%	21.43%	25.96%	26.34%	23.54%	28.68%	36.85%	31.79%	–	–
OC[C@@H](O)[C@@H](O)[C@H](O)[C@H](O)CO [2.5 Man, D-Mannitol]	38.4%	42.57%	–	–	–	–	28.33%	24.65%	25.4%	18.33%	21.4%	–	18.22%	23.16%	27.66%	34.75%	30.61%	45.12%	–	–
C[C@H](N)C(=O)N[C@@H](CCC(N)=O)C(=O)O [3 DP, L-Ala-L-Gln] (H-Ala-Gln-OH)	29.7%	32.95%	27.59%	32.6%	13.51%	30.24%	27.57%	–	59.17%	41.82%	30.98%	29.69%	31.08%	–	–	29.08%	59.25%	59.25%	–	–
